Read-outs that look alike come from different tables or passages of the source.
Columns and labels:
[1] = rcm bond
[2] = biological target: T1, CFTR (F508del/MF-HBE cells) (Homo sapiens, UniProt P13569, DEL508-508); assay: Ussing chamber assay of CFTR-mediated short-circuit currents (identification of potentiator compounds); type: cell-based; conditions: CFTR-mediated ISC in F508del/MF-HBE cells; incubated 18-24 hours at 37° C. with 10 μM (14S)-8-[3-(2-{dispiro[2.0.2.1]heptan-7-yl}ethoxy)-1H-pyrazol-1-yl]-...-2,2,4-trione, 20% human serum
T1 construct: human bronchial epithelial (HBE) cells derived from CF subjects heterozygous for F508del and a minimal function CFTR mutation; endogenous in cells; host or cells: primary human bronchial epithelial cells from CF subjects (F508del/MF genotype)
Outline: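 F508del/minimal-function HBE cultures grown at air-liquid interface were incubated for 18–24 h at 37 °C with potentiator plus 10 μM corrector, in 20% human serum, and compounds stayed present during recording. Transepithelial ISC was recorded at 0 mV and 37 °C with 30 μM apical amiloride. CFTR current was taken as the peak response to 20 μM forskolin minus the steady state after a 20 μM inhibitor cocktail.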

T1 sequence (P13569 with tags, fused parts or gaps DEL508-508): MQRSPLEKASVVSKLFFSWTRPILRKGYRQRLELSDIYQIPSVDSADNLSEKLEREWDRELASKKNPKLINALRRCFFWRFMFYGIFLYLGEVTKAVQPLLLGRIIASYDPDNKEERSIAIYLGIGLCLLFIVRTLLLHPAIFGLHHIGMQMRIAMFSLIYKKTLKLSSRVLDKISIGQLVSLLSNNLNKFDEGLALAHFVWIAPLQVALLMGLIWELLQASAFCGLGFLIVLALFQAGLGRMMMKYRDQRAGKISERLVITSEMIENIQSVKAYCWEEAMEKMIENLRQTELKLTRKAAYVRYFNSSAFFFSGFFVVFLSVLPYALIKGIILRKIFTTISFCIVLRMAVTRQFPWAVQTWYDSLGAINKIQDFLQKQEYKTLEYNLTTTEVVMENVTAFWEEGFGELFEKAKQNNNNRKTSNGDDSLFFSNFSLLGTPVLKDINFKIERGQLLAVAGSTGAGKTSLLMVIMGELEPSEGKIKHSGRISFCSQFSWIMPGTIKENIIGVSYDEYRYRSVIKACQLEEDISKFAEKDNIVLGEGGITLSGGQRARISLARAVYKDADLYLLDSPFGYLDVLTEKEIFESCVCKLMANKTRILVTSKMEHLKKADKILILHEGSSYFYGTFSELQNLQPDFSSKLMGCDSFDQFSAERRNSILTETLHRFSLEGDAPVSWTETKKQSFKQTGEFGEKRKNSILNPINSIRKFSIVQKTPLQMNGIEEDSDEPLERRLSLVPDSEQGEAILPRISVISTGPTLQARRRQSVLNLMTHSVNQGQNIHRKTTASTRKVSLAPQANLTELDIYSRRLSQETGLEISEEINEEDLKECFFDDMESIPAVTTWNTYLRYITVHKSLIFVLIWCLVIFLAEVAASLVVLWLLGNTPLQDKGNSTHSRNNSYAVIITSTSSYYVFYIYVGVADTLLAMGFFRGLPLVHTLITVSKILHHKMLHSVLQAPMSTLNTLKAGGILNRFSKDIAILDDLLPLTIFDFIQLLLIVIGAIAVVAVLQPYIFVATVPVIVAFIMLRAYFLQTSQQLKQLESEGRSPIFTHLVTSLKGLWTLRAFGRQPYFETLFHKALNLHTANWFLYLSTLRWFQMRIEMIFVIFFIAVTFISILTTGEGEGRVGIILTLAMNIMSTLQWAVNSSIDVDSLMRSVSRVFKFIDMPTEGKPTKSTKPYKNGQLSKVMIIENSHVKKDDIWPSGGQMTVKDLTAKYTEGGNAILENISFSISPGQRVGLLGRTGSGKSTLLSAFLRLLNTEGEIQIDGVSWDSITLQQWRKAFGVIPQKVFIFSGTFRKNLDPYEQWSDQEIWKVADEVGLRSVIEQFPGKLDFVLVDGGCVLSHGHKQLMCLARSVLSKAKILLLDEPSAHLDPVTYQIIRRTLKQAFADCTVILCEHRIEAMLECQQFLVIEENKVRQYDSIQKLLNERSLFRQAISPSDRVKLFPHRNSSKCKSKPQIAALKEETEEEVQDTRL

Compound CC(C)N1CCC=CCCC(OCc2ccccc2)(C(F)(F)F)C2=NN=C(O2)c2nc1c(C(F)(F)F)cc2[N+](=O)[O-] (mixture of isomers) has a ring closure, isolated yield ([1]; from C=CCCN(c1nc(-c2nnc(C(CCC=C)(OCc3ccccc3)C(F)(F)F)o2)c([N+](=O)[O-])cc1C(F)(F)F)C(C)C, 14-membered ring, Zhan-1B, DCE, 2.53 mM, 75.0 °C, 3.0 h) of 84%.
CC1(C)CCC=CC[C@@](OCc2ccccc2)(C(F)(F)F)C2=NN=C(O2)c2nc(c(C(F)(F)F)cc2N(C(=O)OC(C)(C)C)C(=O)OC(C)(C)C)N1 (mixture of isomers) gave a ring closure, isolated yield ([1]; from C=CCCC(C)(C)Nc1nc(-c2nnc([C@](CC=C)(OCc3ccccc3)C(F)(F)F)o2)c(N(C(=O)OC(C)(C)C)C(=O)OC(C)(C)C)cc1C(F)(F)F, 14-membered ring, Zhan catalyst-1B, toluene, 8.66 mM, 70.0 °C, 3.0 h) of 62%.
In the case of CC(C)(C)OC(=O)Nc1cc(C(F)(F)F)c2nc1-c1nnc(o1)C(OCc1ccccc1)CCC=CC[C@@H]1CCCN21 (mixture of isomers), the ring closure, isolated yield ([1]; from C=CCCC(OCc1ccccc1)c1nnc(-c2nc(N3CCC[C@H]3CC=C)c(C(F)(F)F)cc2NC(=O)OC(C)(C)C)o1, 14-membered ring, Zhan-1B (15 mol%), DCE, 6.77 mM, 70.0 °C, 20.0 h) is reported as 6%.
COCC1CCC=CC[C@](OCc2ccccc2)(C(F)(F)F)C2=NN=C(O2)c2nc(c(C(F)(F)F)cc2[N+](=O)[O-])N1 (mixture of isomers) gave a ring closure, isolated yield ([1]; from C=CCCC(COC)Nc1nc(-c2nnc([C@@](CC=C)(OCc3ccccc3)C(F)(F)F)o2)c([N+](=O)[O-])cc1C(F)(F)F, 14-membered ring, Zhan catalyst-1B, DCE, 3.15 mM, 60.0 °C, 5.75 h) of 48%.
Work on CC1(C)CC=CCC[C@](OCc2ccccc2)(C(F)(F)F)C2=NN=C(O2)c2nc(c(C(F)(F)F)cc2[N+](=O)[O-])N1 (mixture of isomers) yielded a ring closure, isolated yield ([1]; from [2H]C([2H])([2H])C(CC=C)(Nc1nc(-c2nnc([C@@](CCC=C)(OCc3ccccc3)C(F)(F)F)o2)c([N+](=O)[O-])cc1C(F)(F)F)C([2H])([2H])[2H], 14-membered ring, Zhan catalyst-1B, DCE, 11.0 mM, 75.0 °C, 3.0 h) of 37.8%.
In the case of CCOC(=O)C1CCC=CCC(OCc2ccccc2)(C(F)(F)F)C2=NN=C(O2)c2nc(c(C(F)(F)F)cc2[N+](=O)[O-])N1 (mixture of isomers), the ring closure, isolated yield ([1]; from C=CCCC(Nc1nc(-c2nnc(C(CC=C)(OCc3ccccc3)C(F)(F)F)o2)c([N+](=O)[O-])cc1C(F)(F)F)C(=O)OCC, 14-membered ring, Zhan-1B, DCE, 2.96 mM, 75.0 °C, 2.0 h) is reported as 82%.
For CCOC(=O)C1CC=CCCC(OCc2ccccc2)(C(F)(F)F)C2=NN=C(O2)c2nc(c(C(F)(F)F)cc2[N+](=O)[O-])N1 (mixture of isomers), the ring closure, isolated yield ([1]; from C=CCCC(OCc1ccccc1)(c1nnc(-c2nc(NC(CC=C)C(=O)OCC)c(C(F)(F)F)cc2[N+](=O)[O-])o1)C(F)(F)F, 14-membered ring, Zhan catalyst-1B, DCE, 3.41 mM, 75.0 °C, 2.0 h) was 36%.
CC1(C)CC=CCC(OCc2ccccc2)(C(F)(F)F)C2=NN=C(O2)c2nc(c(C(F)(F)F)cc2[N+](=O)[O-])NC1 (mixture of isomers) gave a ring closure, isolated yield ([1]; from C=CCC(C)(C)CNc1nc(-c2nnc(C(CC=C)(OCc3ccccc3)C(F)(F)F)o2)c([N+](=O)[O-])cc1C(F)(F)F, 14-membered ring, Zhan catalyst-1B, DCE, 2.0 mM, 80.0 °C, 16.0 h) of 14%.
Work on O=C1NNC(=O)[C@@](OCc2ccccc2)(C(F)(F)F)CCC=CCC2(CCCCC2)Nc2nc1c([N+](=O)[O-])cc2C(F)(F)F (mixture of isomers) yielded a ring closure, isolated yield ([1]; from C=CCC[C@@](OCc1ccccc1)(C(=O)NNC(=O)c1nc(NC2(CC=C)CCCCC2)c(C(F)(F)F)cc1[N+](=O)[O-])C(F)(F)F, 15-membered ring, Zhan catalyst-1B, DCE, 4.99 mM, 60.0 °C, 2.0 h) of 70%.
Compound CC(=O)OC1C=CC[C@](OCc2ccccc2)(C(F)(F)F)C2=NN=C(O2)c2nc(c(C(F)(F)F)cc2[N+](=O)[O-])NC(C)(C)C1 (mixture of isomers) has a ring closure, isolated yield ([1]; from C=CC[C@@](OCc1ccccc1)(c1nnc(-c2nc(NC(C)(C)CC(C=C)OC(C)=O)c(C(F)(F)F)cc2[N+](=O)[O-])o1)C(F)(F)F, 14-membered ring, Zhan catalyst-1B, toluene, 10.6 mM, 110.0 °C, 19.0 h) of 20%.
Compound O=[N+]([O-])c1cc(C(F)(F)F)c2nc1-c1nnc(o1)C(OCc1ccccc1)(C(F)(F)F)CCC=CCC1CCS(=O)(=O)N21 (mixture of isomers) has a ring closure, isolated yield ([1]; from C=CCCC(OCc1ccccc1)(c1nnc(-c2nc(N3C(CC=C)CCS3(=O)=O)c(C(F)(F)F)cc2[N+](=O)[O-])o1)C(F)(F)F, 14-membered ring, Zhan-1B, DCE, 4.72 mM, 75.0 °C, 6.0 h) of 19%.
For O=[N+]([O-])c1cc(C(F)(F)F)c2nc1-c1nnc(o1)[C@@](OCc1ccccc1)(C(F)(F)F)CCC=CCC1(CCOC1)N2 (mixture of isomers), the ring closure, isolated yield ([1]; from C=CCC[C@@](OCc1ccccc1)(c1nnc(-c2nc(NC3(CC=C)CCOC3)c(C(F)(F)F)cc2[N+](=O)[O-])o1)C(F)(F)F, 14-membered ring, Zhan catalyst-1B, DCE, 3.17 mM, 60.0 °C, 3.75 h) was 82%.
In the case of “(6R)-6-benzyloxy-17-(tert-butoxycarbonylamino)-6,15-bis(trifluoromethyl)-19-oxa-3,4,13,18-tetrazatricyclo[12.3.1.12,5]nonadeca-1(17),2,4,9,14(18),15-hexaene-12-carboxylic acid (E/Z mixture)”, the ring closure, isolated yield ([1]; 14-membered ring, Zhan catalyst-1B, then LiOH, DCE, 0.99 mM, 75.0 °C, 2 steps) is reported as 21%.
In the case of CCOC(=O)CN1CCC=CCCC(OCc2ccccc2)(C(F)(F)F)C2=NN=C(O2)c2nc1c(C(F)(F)F)cc2N(C(=O)OC(C)(C)C)C(=O)OC(C)(C)C (mixture of isomers), the ring closure, isolated yield ([1]; from C=CCCN(CC(=O)OCC)c1nc(-c2nnc(C(CCC=C)(OCc3ccccc3)C(F)(F)F)o2)c(N(C(=O)OC(C)(C)C)C(=O)OC(C)(C)C)cc1C(F)(F)F, 14-membered ring, Zhan-1B, DCE, 2.3 mM, 75.0 °C, 2.0 h) is reported as 92%.
With CC1(C)CCC[C@H](O)C[C@](O)(C(F)(F)F)C2=NN=C(O2)c2nc(c(C(F)(F)F)cc2N)N1 [Compound 188, (6R,8S)-17-amino-12,12-dimethyl-6,15-bis(trifluoromethyl)-19-oxa-3,4,13,18-tetrazatricyclo[12.3.1.12,5]nonadeca-1(18),2,4,14,16-pentaene-6,8-diol] the EC50 [2] was < 500 nM.
With CN1CCCCCCC(O)(C2CC2)C2=NN=C(O2)c2nc1c(C(F)(F)F)cc2N (single isomer, unassigned) [Compound 78, 17-amino-6-cyclopropyl-13-methyl-15-(trifluoromethyl)-19-oxa-3,4,13,18-tetrazatricyclo[12.3.1.12,5]nonadeca-1(18),2,4,14,16-pentaen-6-ol] the EC50 [2] was < 500 nM.
With Nc1cc(Sc2ccc(OC(F)(F)F)cc2)c2nc1-c1nnc(o1)C(O)(C(F)(F)F)CCCCC[C@@H]1CCCN21 (stereo partly drawn) [Compound 146, (12R)-20-amino-18-{[4-(trifluoromethoxy)phenyl]sulfanyl}-6-(trifluoromethyl)-22-oxa-3,4,16,21-tetraazatetracyclo[15.3.1.12,5.012,16]docosa-1(21),2,4,17,19-pentaen-6-ol] the EC50 [2] was < 500 nM.
With Nc1cc(C(F)(F)F)c2nc1-c1nnc(o1)C(O)(C(F)(F)F)c1ccc(F)c(c1)CCC[C@@H]1CCCN21 (single isomer, unassigned) [Compound 131] the EC50 [2] was < 500 nM.
In the case of Nc1cc(C(F)(F)F)c2nc1-c1nnc(o1)[C@@](O)(C(F)(F)F)CCCCCC(C(=O)N1CCCC1)N2 (single isomer, unassigned) [Compound 158], the EC50 [2] is reported as > 1000 nM.
Compound Nc1cc(C(F)(F)F)c2nc1-c1nnc(o1)[C@](O)(C(F)(F)F)CCCCC[C@H]1CCCN21 (single isomer, unassigned) [Compound 6] has an EC50 [2] of 500 to 1000 nM.
With CC1(C)Nc2nc(c(N)cc2C(F)(F)F)C2=NN=C(O2)[C@@](O)(C(F)(F)F)CCCCC1O (single isomer, unassigned) [Compound 204] the EC50 [2] was < 500 nM.
In the case of Nc1cc(C(F)(F)F)c2nc1-c1nnc(o1)[C@@](O)(C(F)(F)F)CCCCCC1(CCOC1)N2 (single isomer, unassigned) [Compound 207], the EC50 [2] is reported as < 500 nM.
For Nc1cc(C(F)(F)F)c2nc1-c1nnc(o1)C(O)(C(F)(F)F)CCCCCCC1CCCN21 (single isomer, unassigned) [Compound 26, 21-amino-6,19-bis(trifluoromethyl)-23-oxa-3,4,17,22-tetraazatetracyclo[16.3.1.12,5.013,17]tricosa-1(22),2,4,18,20-pentaen-6-ol], the EC50 [2] was > 1000 nM.
For COCCN1CCCCCCC(O)(C(F)(F)F)C2=NN=C(O2)c2nc1c(C(F)(F)F)cc2N (single isomer, unassigned) [Compound 35, 17-amino-13-(2-methoxyethyl)-6,15-bis(trifluoromethyl)-19-oxa-3,4,13,18-tetrazatricyclo[12.3.1.12,5]nonadeca-1(18),2,4,14,16-pentaen-6-ol], the EC50 [2] was > 1000 nM.
With Nc1cc([S+]([O-])c2ccc(OC(F)(F)F)cc2)c2nc1-c1nnc(o1)C(O)(C(F)(F)F)CCCCC[C@@H]1CCCN21 (mixture of isomers) [Compound 145, (12R)-20-amino-18-[4-(trifluoromethoxy)benzenesulfinyl]-6-(trifluoromethyl)-22-oxa-3,4,16,21-tetraazatetracyclo[15.3.1.12,5.012,16]docosa-1(21),2,4,17,19-pentaen-6-ol] the EC50 [2] was < 500 nM.
For CN(C)C(=O)C1CCCCCC(O)(C(F)(F)F)C2=NN=C(O2)c2nc(c(C(F)(F)F)cc2N)N1 (single isomer, unassigned) [Compound 151, 17-amino-6-hydroxy-N,N-dimethyl-6,15-bis(trifluoromethyl)-19-oxa-3,4,13,18-tetrazatricyclo[12.3.1.12,5]nonadeca-1(18),2,4,14,16-pentaene-12-carboxamide], the EC50 [2] was > 1000 nM.

Source: patent US12324802B2, “Modulators of cystic fibrosis transmembrane conductance regulator” (Vertex Pharmaceuticals Incorporated, priority 2020, dated 2025)
